The source made the active and inactive calls. No cut-off for these calls is given here.
Tests used:
[1] = tested on: HeLa; experiment: Inhibition of colony formation in human HeLa cells assessed as reduction in colony formation at 1 to 250 nM incubated for 48 hrs followed by culturing in fresh compound-free medium for 10 days by crystal violet staining based assay; type: functional, cell-based; details: dose 1-250 nM, DDE = dose-dependent effect
[2] = tested on: HeLa; experiment: Inhibition of colony formation in human HeLa cells assessed as reduction in colony formation at 250 nM incubated for 24 hrs followed by culturing in fresh compound-free medium for 10 days by crystal violet staining based assay; type: functional, cell-based
[3] = Antiproliferative activity against human A549/PTX cells assessed as reduction in cell viability measured for 48 hrs by MTS assay; type: functional, cell-based
[4] = target: Tubulin (Sus scrofa, UniProt P02554+P02550); experiment: Inhibition of pig brain tubulin polymerization incubated for 19 mins by spectrophotometric method
[5] = target: Tubulin (Homo sapiens) (UniProt P68371+Q9H4B7+P0DPH7+P68366+Q13509+Q71U36+P04350+Q3ZCM7+P07437+P68363+Q9BQE3+Q6PEY2+Q13885+Q9BVA1+Q9BUF5); experiment: Disruption of microtubule network in human HeLa cells at 100 to 500 nM incubated for 3 hrs by laser confocal microscopy analysis; type: cell-based; details: dose 100-500 nM, DDE = dose-dependent effect
[6] = tested on: HeLa; experiment: Induction of cell cycle arrest in human HeLa cells assessed as accumulation of cells at G2/M phase at 100 to 2000 nM incubated for 24 to 48 hrs by […] flow cytometry; type: functional; details: dose 100-2000 nM, time 24-48 hrs, DDE = dose-dependent effect
[7] = tested on: HeLa; experiment: Induction of apoptosis in human HeLa cells assessed as viable cells at 100 nM incubated for 24 hrs by annexin V FITC and propidium iodide staining based flow cytometry analysis (reference value: 85.7%); type: functional; details: read-out: Activity
[8] = tested on: HeLa; experiment: Induction of apoptosis in human HeLa cells assessed as early apoptotic cells at 100 nM incubated for 24 hrs by annexin V FITC and propidium iodide staining based flow cytometry analysis (reference value: 0.12%); type: functional
[9] = tested on: HeLa; experiment: Induction of apoptosis in human HeLa cells assessed as late apoptotic cells at 500 nM incubated for 24 hrs by annexin V FITC and propidium iodide staining based flow cytometry analysis (reference value: 0.05%); type: functional
[10] = tested on: HeLa; experiment: Induction of apoptosis in human HeLa cells assessed as necrotic cells at 750 nM incubated for 24 hrs by annexin V FITC and propidium iodide staining based flow cytometry analysis (reference value: 1.14 %); type: functional
[11] = tested on: HeLa; experiment: Induction of apoptosis in human HeLa cells assessed as necrotic cells at 1 uM incubated for 24 hrs by annexin V FITC and propidium iodide staining based flow cytometry analysis (reference value: 1.14 %); type: functional
[12] = tested on: HeLa; experiment: Induction of apoptosis in human HeLa cells assessed as late apoptotic cells at 100 nM incubated for 48 hrs by annexin V FITC and propidium iodide staining based flow cytometry analysis (reference value: 8.87%); type: functional
[13] = tested on: HeLa; experiment: Induction of apoptosis in human HeLa cells assessed as necrotic cells at 100 nM incubated for 48 hrs by annexin V FITC and propidium iodide staining based flow cytometry analysis (reference value: 1.85 %); type: functional
[14] = tested on: HeLa; experiment: Induction of apoptosis in human HeLa cells assessed as viable cells at 750 nM incubated for 48 hrs by annexin V FITC and propidium iodide staining based flow cytometry analysis (reference value: 85.5%); type: functional; details: read-out: Activity
[15] = tested on: HeLa; experiment: Induction of apoptosis in human HeLa cells assessed as early apoptotic cells at 750 nM incubated for 48 hrs by annexin V FITC and propidium iodide staining based flow cytometry analysis (reference value: 6.01%); type: functional
[16] = tested on: HeLa; experiment: Induction of apoptosis in human HeLa cells assessed as late apoptotic cells at 1 uM incubated for 48 hrs by annexin V FITC and propidium iodide staining based flow cytometry analysis (reference value: 8.87%); type: functional
[17] = tested on: HeLa; experiment: Induction of apoptosis in human HeLa cells assessed as early apoptotic cells at 100 nM incubated for 72 hrs by annexin V FITC and propidium iodide staining based flow cytometry analysis (reference value: 2.36%); type: functional
[18] = tested on: HeLa; experiment: Induction of apoptosis in human HeLa cells assessed as necrotic cells at 100 nM incubated for 72 hrs by annexin V FITC and propidium iodide staining based flow cytometry analysis (reference value: 2.88 %); type: functional
[19] = tested on: HeLa; experiment: Induction of apoptosis in human HeLa cells assessed as late apoptotic cells at 500 nM incubated for 72 hrs by annexin V FITC and propidium iodide staining based flow cytometry analysis (reference value: 4.70%); type: functional
[20] = tested on: HeLa; experiment: Induction of apoptosis in human HeLa cells assessed as necrotic cells at 750 nM incubated for 72 hrs by annexin V FITC and propidium iodide staining based flow cytometry analysis (reference value: 2.88 %); type: functional
[21] = tested on: HeLa; experiment: Induction of apoptosis in human HeLa cells assessed as early apoptotic cells at 1 uM incubated for 72 hrs by annexin V FITC and propidium iodide staining based flow cytometry analysis (reference value: 2.36%); type: functional
[22] = tested on: HeLa; experiment: Induction of mitochondrial membrane potential alteration in human HeLa cells assessed as viable cells at 100 nM measured after 48 hrs by JC1 staining-based flow cytometry analysis (reference value: 90.9 %); type: functional; details: read-out: Activity
[23] = tested on: HeLa; experiment: Induction of mitochondrial membrane potential alteration in human HeLa cells assessed as necrotic cells at 100 nM measured after 48 hrs by JC1 staining-based flow cytometry analysis (reference value: 0%); type: functional
[24] = tested on: HeLa; experiment: Induction of mitochondrial membrane potential alteration in human HeLa cells assessed as early apoptotic cells at 500 nM measured after 48 hrs by JC1 staining-based flow cytometry analysis (reference value: 9.07 %); type: functional
[25] = tested on: HeLa; experiment: Induction of mitochondrial membrane potential alteration in human HeLa cells assessed as necrotic cells at 500 nM measured after 48 hrs by JC1 staining-based flow cytometry analysis (reference value: 0%); type: functional
[26] = tested on: HeLa; experiment: Induction of mitochondrial membrane potential alteration in human HeLa cells assessed as viable cells at 750 nM measured after 48 hrs by JC1 staining-based flow cytometry analysis (Rvb =90.9 %); type: functional; details: read-out: Activity
[27] = tested on: HeLa; experiment: Induction of mitochondrial membrane potential alteration in human HeLa cells assessed as early apoptotic cells at 750 nM measured after 48 hrs by JC1 staining-based flow cytometry analysis (reference value: 9.07 %); type: functional
[28] = tested on: HeLa; experiment: Induction of mitochondrial membrane potential alteration in human HeLa cells assessed as late apoptotic cells at 750 nM measured after 48 hrs by JC1 staining-based flow cytometry analysis (reference value: 0.009%); type: functional
[29] = tested on: HeLa; experiment: Induction of mitochondrial membrane potential alteration in human HeLa cells assessed as viable cells at 1 uM measured after 48 hrs by JC1 staining-based flow cytometry analysis (reference value: 90.9%); type: functional; details: read-out: Activity
[30] = tested on: HeLa; experiment: Induction of mitochondrial membrane potential alteration in human HeLa cells assessed as early apoptotic cells at 1 uM measured after 48 hrs by JC1 staining-based flow cytometry analysis (reference value: 9.07 %); type: functional
[31] = tested on: HeLa; experiment: Inhibition of cell migration in human HeLa cells at 10 to 1000 nM measured up to 24 hrs wound healing assay; type: functional, cell-based; details: dose 10-1000 nM, DDE = dose-dependent effect

COc1cc(C(=O)c2nc(N3CCCC3)nc3ccsc23)cc(OC)c1OC
inhibition [1]: Dde
inhibition [2]: Active
IC50 [3]: 24.4 nM
IC50 [4]: 1600 nM
Activity [5]: Dde
Activity [6]: Dde
viability at 0.1 µM [7]: 80.5%
Activity [8]: 2.98%
Activity [9]: 6.42%
Activity [10]: 3.09%
Activity [11]: 4.52%
Activity [12]: 5.18%
Activity [13]: 2.38%
viability at 0.75 µM [14]: 36.7%
Activity [15]: 7.72%
Activity [16]: 41.2%
Activity [17]: 2.65%
Activity [18]: 5.32%
Activity [19]: 14.5%
Activity [20]: 40.8%
Activity [21]: 5.47%
viability at 0.1 µM [22]: 92.4%
Activity [23]: 0.02%
Activity [24]: 33.1%
Activity [25]: 0.01%
viability at 0.75 µM [26]: 56.7%
Activity [27]: 43.3%
Activity [28]: 0.077%
viability at 1 µM [29]: 44.6%
Activity [30]: 55.3%
inhibition [31]: Dde

Reference: ChEMBL document CHEMBL5126582, “Discovery of (2-(pyrrolidin-1-yl)thieno[3,2-d]pyrimidin-4-yl)(3,4,5-trimethoxyphenyl)methanone as a novel potent tubulin depolymerizing and vascular disrupting agent” (Eur J Med Chem, 2022)
